Source: patent US10577362B2, “Substituted 2, 4-diamino-quinoline derivatives for use in the treatment of proliferative diseases” (GENOSCIENCE PHARMA, priority 2016, dated 2020)
Counter-ions that a name gives are not always drawn.

How the values were obtained:
Type in all cases: cell-based, human
[1] = tested on: Huh7 (hepatocellular carcinoma) cell line; assay: CellTiter-Glo luminescent cell viability assay, Huh7; details: Homo sapiens, Huh-7; for viability at 4 µM: Huh7, compound at 4 μM; for viability at 4 µM / viability at 10 µM: 72 h; for viability at 10 µM: Huh7, compound at 10 μM; for EC50: Huh7 cell line, 72 h incubation, CellTiter-Glo, read-out: EC50, growth inhibition of Huh7
Description: (§1) All cell lines were maintained in medium containing 1% penicillin-streptomycin (Dutscher, P06-07100) and 10% Fetal Bovine Serum (Hyclone Dutscher, RZK35922) cultured at 37° C. with 5% CO2. HepG2 (hepatocellular carcinoma), cell line was cultured in Dulbecco's modified Eagle's medium low glucose (Gibco, 21885025), Huh7 (hepatocellular carcinoma), HCT-116 (colorectal carcinoma), PANC-1 (prancreatic carcinoma) and A375 (malignant melanoma) cell lines were cultured in Dulbecco's modified Eagle's medium (Dutscher, L0103). MOLM-14 (acute myeloid leukemia) cell line was maintained in MEM alpha medium (Gibco, 22561-021). 786-0 (renal adenocarcinoma) cell lines were maintained in RPMI 1640 medium (Dutscher, L0498).
(§2) Cell viability was measured using the CellTiter-Glo® luminescent cell viability assay as described by the manufacturer (Promega, Ref G7571) using an Infinite F200Pro luminometer (Tecan). Briefly, for adherent cells, cells were plated onto 96-well plates (white with clear bottom) in 90 μL of media per well and were allowed to grow overnight before the assay. For cells growing in suspension, cells were plated onto 96-well plates 1 h before the assay.
(§3) Compounds were resuspended in H2O or DMSO and added at different concentrations to each well, and cell cultures were incubated for 72 h. Each diluent (H2O or DMSO) were used as a control, and all compounds were tested in a constant percentage of H2O or DMSO. On the day of the reading, plates are equilibrated 30 min at room temperature before the addition of 100 μL of CellTiter-Glo® and luminescence was measured using an Infinite F200Pro (Tecan). % cell viability were expressed as a percentage of the signal obtained for cell cultures treated with diluent. EC50 values were determined as the dose of compound required to reduce luminescent values to 50% of the signal obtained for cell cultures treated with diluent. The experimental data were analyzed using a computer program, Graphpad Prism v5 (GraphPad Software, Inc. La Jolla, Calif.). All points were at least done in duplicate.

[2] = tested on: 786-O (renal adenocarcinoma) cell line; assay: CellTiter-Glo luminescent cell viability assay, 786-O; details: Homo sapiens, 786-0; for viability at 4 µM / viability at 10 µM: 786-O, 72 h; for viability at 4 µM: compound at 4 μM; for viability at 10 µM: compound at 10 μM; for EC50: 786-O cell line, 72 h incubation, CellTiter-Glo, read-out: EC50, growth inhibition of 786-O
Description: as §1, §2, §3

[3] = tested on: HCT-116 (colorectal carcinoma) cell line; assay: CellTiter-Glo luminescent cell viability assay, HCT-116; details: Homo sapiens; for viability at 4 µM: HCT-116, compound at 4 μM; for viability at 4 µM / viability at 10 µM: 72 h; for viability at 10 µM: HCT-116, compound at 10 μM; for EC50: HCT-116 cell line, 72 h incubation, CellTiter-Glo, read-out: EC50, growth inhibition of HCT-116
Description: as §1, §2, §3

[4] = tested on: MOLM-14 (acute myeloid leukemia) cell line; assay: CellTiter-Glo luminescent cell viability assay, MOLM-14; details: Homo sapiens; for viability at 4 µM: MOLM-14, compound at 4 μM; for viability at 4 µM / viability at 10 µM: 72 h; for viability at 10 µM: MOLM-14, compound at 10 μM; for EC50: MOLM-14 cell line, 72 h incubation, CellTiter-Glo, read-out: EC50, growth inhibition of MOLM-14
Description: as §1, §2, §3

[5] = tested on: A375 (malignant melanoma) cell line; assay: CellTiter-Glo luminescent cell viability assay, A375; details: Homo sapiens, A-375; for viability at 4 µM: A375, compound at 4 μM; for viability at 4 µM / viability at 10 µM: 72 h; for viability at 10 µM: A375, compound at 10 μM; for EC50: A375 cell line, 72 h incubation, CellTiter-Glo, read-out: EC50, growth inhibition of A375
Description: as §1, §2, §3

[6] = tested on: HepG2 (hepatocellular carcinoma) cell line; assay: CellTiter-Glo luminescent cell viability assay, HepG2; details: Homo sapiens; for viability at 4 µM / viability at 10 µM: HepG2, HepG, 72 h; for viability at 4 µM: compound at 4 μM; for viability at 10 µM: compound at 10 μM; for EC50: HepG2 cell line, 72 h incubation, CellTiter-Glo, read-out: EC50, growth inhibition of HepG2
Description: as §1, §2, §3

Row | EC50 [1] [µM] | EC50 [2] [µM] | EC50 [3] [µM] | EC50 [4] [µM] | EC50 [5] [µM] | EC50 [6] [µM] | SMILES | viability at 4 µM [1] [%] | viability at 10 µM [1] [%] | viability at 4 µM [2] [%] | viability at 10 µM [2] [%] | viability at 4 µM [3] [%] | viability at 10 µM [3] [%] | viability at 4 µM [4] [%] | viability at 10 µM [4] [%] | viability at 4 µM [5] [%] | viability at 10 µM [5] [%] | viability at 4 µM [6] [%] | viability at 10 µM [6] [%]
1 | 0.5 to 5 | 5 to 10 | 0.5 to 5 | 0.5 to 5 | 0.5 to 5 | 0.5 to 5 | COC[C@@H]1CCCN1c1cc(NCc2ccc(Cl)cc2)nc2ccccc12 [Compound 2310, (2S) 2-(4-chlorobenzylamino)-4-[2-(methoxymethyl)pyrrolidin-1-yl]quinoline, hydrochloride] | – | – | – | – | – | – | – | – | – | – | – | –
2 | 5 to 10 | 0.5 to 5 | 0.5 to 5 | 0.5 to 5 | 0.5 to 5 | 0.5 to 5 | Cc1cc(F)c2nc(NCc3ccc(Cl)cc3)cc(N3CCC(NC(C)(C)C)CC3)c2c1 [Compound 568, 2-(4-chlorobenzylamino)-4-[4-(tert-butylamino)piperidin-1-yl]-6-methyl-8-fluoroquinoline] | – | – | – | – | – | – | – | – | – | – | – | –
3 | 0.5 to 5 | 5 to 10 | 5 to 10 | 5 to 10 | 5 to 10 | 0.5 to 5 | CC(C)(C)NC(=O)C1CCN(c2cc(NCc3ccc(Cl)cc3)nc3ccccc23)CC1 [Compound 1604, 2-(4-chlorobenzylamino)-4-[4-(tert-butylaminocarbonyl)-piperidin-1-yl]-quinoline hydrochloride] | – | – | – | – | – | – | – | – | – | – | – | –
4 | 0.5 to 5 | – | – | – | – | – | O=C(C1CCN(c2cc(NCc3ccc(Cl)cc3)nc3ccccc23)CC1)N1CCCC1 [Compound 1648, 2-(4-chlorobenzylamino)-4-[4-(pyrrolidine-1-carbonyl)piperidin-1-yl]quinoline, hydrochloride] | – | – | – | – | – | – | – | – | – | – | – | –
5 | 0.5 to 5 | 5 to 10 | 0.5 to 5 | 0.5 to 5 | 0.5 to 5 | 0.5 to 5 | OC[C@H]1CCCN1c1cc(NCc2ccc(Cl)cc2)nc2ccccc12 [Compound 2380, (2R)-2-(4-chlorobenzylamino)-4-[2-(hydroxymethyl)-pyrrolidin-1-yl]-quinoline hydrochloride] | – | – | – | – | – | – | – | – | – | – | – | –
6 | – | 0.5 to 5 | 0.5 to 5 | 0.5 to 5 | 0.5 to 5 | 0.5 to 5 | Cc1cc(F)cc2c(N3CCC(NC(C)(C)C)CC3)cc(NCc3ccc(Cl)cc3)nc12 [Compound 580, 2-(4-chlorobenzylamino)-4-[4-(tert-butylamino)piperidin-1-yl]-6-fluoro-8-methylquinoline] | – | – | – | – | – | – | – | – | – | – | – | –
7 | 0.5 to 5 | 5 to 10 | 5 to 10 | – | 5 to 10 | 0.5 to 5 | OC1CCN(c2cc(NCc3ccc(Cl)cc3)nc3ccccc23)CC1 [Compound 2916, 2-(4-chlorobenzylamino)-4-(4-hydroxypiperidin-1-yl)quinoline, hydrochloride] | – | – | – | – | – | – | – | – | – | – | – | –

More lines, now with the values behind:

Row | SMILES | EC50 [1] [µM] | EC50 [2] [µM] | EC50 [3] [µM] | EC50 [4] [µM] | EC50 [5] [µM] | EC50 [6] [µM] | viability at 4 µM [1] [%] | viability at 10 µM [1] [%] | viability at 4 µM [2] [%] | viability at 10 µM [2] [%] | viability at 4 µM [3] [%] | viability at 10 µM [3] [%] | viability at 4 µM [4] [%] | viability at 10 µM [4] [%] | viability at 4 µM [5] [%] | viability at 10 µM [5] [%] | viability at 4 µM [6] [%] | viability at 10 µM [6] [%]
8 | Cc1ccc(OC2CCCN(c3c(C#N)c(NCc4ccc(Cl)cc4)nc4ccccc34)C2)cc1 (stereo not shown) [Compound 3234CN, 2-(4-chlorobenzylamino)-3-cyano-4-[3-(4-methylphenoxy)piperidin-1-yl]quinoline] | – | – | – | – | – | – | 99.2 | 95.5 | 89.8 | 80.5 | 93.8 | 90.7 | 94.4 | 92 | 107 | 102 | 89.8 | –
9 | Cc1ccnc(Nc2ccc(Nc3nc4ccccc4c(N4CCC(NC(C)(C)C)CC4)c3C)cc2)n1 [Compound 532Me, 2-[4-(4-methylpyrimidin-2-ylamino)phenylamino]-3-methyl-4-(4-tert-butylaminopiperidin-1-yl)quinoline] | – | – | – | – | – | – | 55.9 | 0.5 | 0.3 | 0.3 | 16 | 0.3 | 65.5 | 0.4 | 23.3 | 0.3 | 12.3 | 0.3
10 | Cc1cc(CNc2nc3ccccc3c(N3CCC(NC(C)(C)C)CC3)c2C#N)ccc1Nc1nccc(-c2cccnc2)n1 [Compound 498CN, 2-[4-(4-(pyridin-3-yl)pyrimidin-2-ylamino)-3-methylbenzylamino]-3-cyano-4-(4-tert-butylaminopiperidin-1-yl)quinoline] | – | – | – | – | – | – | 58.5 | 0.2 | 0.2 | 0.1 | 0.2 | 0.1 | 0.3 | 0.2 | 0.2 | 0.1 | 0.2 | 0.1
11 | N#Cc1c(NCc2ccc(Cl)cc2)nc2ccccc2c1N1CCC(Oc2ccc(Cl)cc2)C1 (stereo not shown) [Compound 3336CN, 2-(4-chlorobenzylamino)-3-cyano-4-[3-(4-chlorophenoxy)pyrrolidin1--yl]quinoline] | – | – | – | – | – | – | 95.6 | 93.8 | 82.8 | 79.8 | 99 | 92 | 98.8 | 89.8 | 106 | 107 | 75.4 | 74.5
12 | CCN(Cc1ccc(Cl)cc1)c1cc(N2CCC(NC(C)(C)C)CC2)c2ccccc2n1 [Compound 214, 2-(N-4-chlorobenzyl-N-ethylamino)-4-[4-(tert-butylamino)-piperidin-1-yl]-quinoline hydrochloride] | – | – | – | – | – | – | 43 | 0.4 | 6.5 | 0.4 | 0.2 | 0.3 | 26.8 | 16.4 | 0.4 | 0.4 | 0.3 | 0.4
13 | N#Cc1c(NCc2ccc(Cl)cc2)nc2ccccc2c1N1CCCC(Oc2ccc(F)cc2)C1 (stereo not shown) [Compound 3238CN, 2-(4-chlorobenzylamino)-3-cyano-4-[3-(4-fluorophenoxy)piperidin-1-yl]quinoline] | – | – | – | – | – | – | 97.7 | 93.7 | 90.7 | 86.1 | 97.8 | 85.1 | 101 | 91.6 | 106 | 102 | 95.9 | 90.8
14 | Cc1ccnc(Nc2ccc(Nc3nc4ccccc4c(N4CCC(NC(C)(C)C)CC4)c3C#N)cc2)n1 [Compound 532CN, 2-[4-(4-methylpyrimidin-2-ylamino)phenylamino]-3-cyano-4-(4-tert-butylaminopiperidin-1-yl)quinoline] | 5 to 10 | 0.5 to 5 | 0.5 to 5 | 5 to 10 | 0.5 to 5 | 5 to 10 | – | – | – | – | – | – | – | – | – | – | – | –
